# Patent US20040014217A1, “Methods of transfection” (priority 2000, published 2004)
# Legend:
# [1] = tested on: 1HAEo-cells; assay: pEGFP transfection efficiency by flow cytometry, 1HAEo- cells, Example 15; type: cell-based, human; settings: EGTA 2 mM versus no EGTA
# Method: Human airway epithelial cell lines, a normal cell line 1HAEo- and a CF cell line 2CFSMEo-, were used in this study. […] The apical medium was then removed and growth medium was added basolateraly to leave the cells growing at an air-liquid interface. Confluent cells were grown for further 10-14 days and were monitored with an ohmmeter (EVOM; World Precision Instruments, Stevenage, UK) until the transepithelial resistance was greater than 300 Ω·cm before transfection. […] Sub-confluent, proliferating cells were prepared by growing the cells for less then 3 days in growth medium prior to transfection.
# Briefly, stock solutions of the three components of the LID vector complex were prepared first. Plasmid DNA (component D) was diluted in cell culture medium OptiMEM (Life Technologies, Paisley, UK) at a concentration of 0.01 μg/μl. […] The peptide component I was dissolved in Opti-MEM at 0.1 mg/ml. The lipid component L was Lipofectin, a commercially available equimolar mixture of the cationic lipid N-[1-(2,3-dioleyloxy)propyl]-n,n,n-trimethylammonium chloride (DOTMA) and the neutral lipid dioleoyl phosphotidylethanolamine (DOPE), (Life Technologies, Paisley, UK) and was used from purchase at 1 mg/ml. […]
# [2] = tested on: 1HAEo-cells; assay: BrdU incorporation by flow cytometry, 1HAEo- cells; type: cell-based, human; settings: EGTA 2 mM, aphidicolin 10 μg/ml where present
# Method: A BrdU Labelling and Detection Kit (Roche, Basel, Switzerland) was used, which contains the BrdU labelling reagent and the monoclonal mouse anti-BrdU. […] Cells were washed with PBS and incubated with a second layer antibody, Texas Red labelled horse anti-mouse IgG (Vector Laboratories, Peterborough, UK), for 30 minutes at 37° C. and then analysed by flow cytometry at the wavelength of 575±20 nm as detailed above. In some experiments, aphidicolin, a cell-proliferation inhibitor blocking the cell cycle in S-phase, was added to the cells to observe the effects on transfection efficiency.
# [3] = tested on: confluent 1HAEo-cells; assay: Immunofluorescence for tight junction protein occludin; type: cell-based, human; settings: 2 mM EGTA in Opti-MEM, 30 minutes
# Method: To observe the double fluorescence labelling, the β-galactosidase-transfected and BrdU-labelled (as detailed above in Assay of cell proliferation) cells were fixed with 70% ethanol in 50 mM glycine buffer, pH 2.0, for 30 minutes at −20° C. The cells were then incubated with a mixture of two primary antibodies, the rabbit anti-p-galactosidase at 1:200 (Chemicon International Inc, Harrow, UK). and the mouse anti-BrdU at 1:10 (BrdU Labelling and Detection Kit; Roche, Basel, Switzerland), followed by incubation with a mixture of FITC-conjugated goat anti-rabbit IgG and texas red labelled horse anti-mouse IgG (Vector Laboratories, Peterborough, UK). Transwell inserts were then excised from the plastic holder and mounted on glass slides with aqueous mountant Vectashield (Vector Laboratories, Peterborough, UK). To observe the effects of EGTA on tight junction, the EGTA-treated cells were immunostained with a rabbit polyclonal antibody against tight junction protein occludin (Zymed, San Francisco, USA) diluted 1:10 with PBS. […] Images were observed and captured with an inverted fluorescence microscope (Olympus IX70, Olympus Optical Company, London, UK) for transwell and a confocal microscope (Leica TCS SP, Exton, Pa., USA) for excised inserts.
# [4] = tested on: normal and CF epithelial cell lines; assay: Transfection of sub-confluent and confluent airway epithelial cell lines (summary of description); type: cell-based, human
# From the text: However, all the cell lines tested were transfected under conventional conditions for transfection, that is to say, the cells were sub-confluent. It has been reported that mitosis is required for efficient transformation using cationic liposomes and also when using peptide-based transformation systems (Wilke, 1996; Tseng 1999; Brunner 2000). Confluent cells and/or cells treated with inhibitors of DNA polymerase such as aphidicolin are non-mitotic and transfect with polycationic vectors with low efficiency. The major cell limiting step is considered to be delivery of the transfected nucleic acid into the nucleus. Transportation of the nucleic acid through the cytoplasm to the nucleus is slow and the pores in the nuclear envelope are too small to permit rapid entry of the transfected nucleic acid. It is generally accepted that sub-confluent cultures, in which the cells are dividing, should be used for transfection. We attempted transfection with the transfection complexes of WO98/54347 but using cell line cultures that were confluent i.e. effectively non-mitotic.
# The present invention is based on the surprising observation that the use of EGTA with a transfection vector comprising DNA, an integrin-binding component, a polycationic nucleic acid-binding component, and a lipid component, enhances transfection efficiency of confluent cells, which are slowly dividing or non-dividing i.e. substantially non-mitotic cells, in vitro and in vivo.
# In accordance with the present invention integrin-targeted transfection vector complexes comprising peptide 6 above, which is an α5β1-targeted peptide, linked to oligolysine comprising 16 lysines i.e. K16, (component I); lipofectin (component L); and a reporter gene (component D) were used with EGTA for transfection. Sub-confluent normal and CF epithelial cell lines were transfected with the green fluorescent report gene and transfection efficiencies of 40 to 50% were achieved. Cells were then cultured in confluent monolayers to model more closely airway structure. […]
# [5] = tested on: mouse lung; assay: Transfection of mouse lungs in vivo (luciferase), intra-tracheal instillation
# Method: Lipid (lipofectin) (1 mg/ml) and peptide 6 ([sequence]) (1 mg/ml) were mixed in one tube and pCILuc Plasmid DNA (1 mg/ml) and EGTA in phosphate buffer saline (PBS) were mixed together in another tube then the contents of the two tubes were mixed so that the final ratios were 0.75 μg lipid to 1 μg DNA and a final concentration of 100 mM EGTA (or no EGTA for the control). The protocol was repeated to give vector complexes having a final EGTA concentration of 400 mM.
# Each mouse received 8 μg of plasmid DNA in a volume of 50 μl.
# Cell lysis buffer (Promega, Southampton, England) was added to each lung (4 μl/mg). The tissue was then homogenised two times, on ice, for 30 seconds each time (Polytron PT10-35, Philip Harris, Nottingham, England). Lung homogenates were is centrifuged at 10,000×g at 4 C for 10 minutes, then 20 μl of the supernatant were added to 100 μl of luciferase assay buffer (Promega) and luminescence measured in a luminometer (TD-20/20; Steptech Instruments, Stevenage, England). All results were repeated in triplicate and the mean calculated.
# The total protein concentration in the lysate was measured using a protein assay kit (Bio-Rad, Hemel Hempstead, Herts, England) and using bovine serum albumin as a standard. Luciferase activity was expressed in relative light units (RLU) for each sample of lung lysate minus the background and normalised per mg of protein.
smiles,measurement,setting,value
"O=C(O)CN(CCOCCOCCN(CC(=O)O)CC(=O)O)CC(=O)O [EGTA, ethylene glycol-bis(β-aminoethyl ether)-N,N,N′,N′-tetraacetic acid]",increase in transfection efficiency of confluent cells,[1],4 fold
same,"BrdU-positive cells, sub-confluent 1HAEo- cells",[2],about 24%
same,effect on tight junctions (occludin immunofluorescence),[3],disrupted the tight junctions
same,effect on transfection efficiency of sub-confluent cells,[4],no effect
same,increase of transfection efficiency of airway epithelial cells in vitro,[4]; green fluorescent protein and luciferase reporter genes,about four-fold
same,"transfection efficiency, confluent cells co-treated with EGTA",[4]; green fluorescent reporter gene,20 to 30%
same,"enhancement of transfection of mouse lung (luciferase, RLU per mg lung protein)","[5]; 100 mM EGTA, 8 μg plasmid DNA in 50 μl, intra-tracheal",about four-fold
same,lethality,[5]; 400 mM EGTA in vivo,lethal in many cases
